From patent US20190031665A1, “DERIVATIVES OF PYRROLOIMIDAZOLE OR ANALOGUES THEREOF WHICH ARE USEFUL FOR THE TREATMENT OF INTER ALIA CANCER” (EMCURE PHARMACEUTICALS LIMITED, priority 2016, published 2019)

Assays:
[1] = target: T1, human indoleamine 2,3-dioxygenase 1 (hIDO1) (Homo sapiens, UniProt P14902); assay: In-vitro human indoleamine 2,3-dioxygenase 1 (IDO1) enzyme assay; assay type: biochemical; details: for IC50: hIDO1 enzyme; for inhibition at 1 µM: hIDO1 enzyme at 1.0 μM concentration; for inhibition at 10 µM: hIDO1 enzyme at 10.0 μM concentration
T1 construct: His tag (N); purchased BPS Bioscience, San Diego, Calif., USA; host or cells: E. coli
Method: (§1) In-vitro human indoleamine 2,3-dioxygenase 1 (IDO1) enzyme assay: In the in-vitro human indoleamine 2,3-dioxygenase 1 (hIDO1) enzyme assay for screening inhibitor compounds, hIDO1 with an N-terminal histidine tag expressed and purified from E. coli (BPS Bioscience, San Diego, Calif., USA) was used. All other materials were procured from Sigma-Aldrich, St. Louis, Mo., USA.
The assay method for monitoring the conversion of L-tryptophan to N-formylkynurenine by hlDO1 was carried out as follows. hlDO1 (50 ng) was incubated with tryptophan (80 μM) in the presence of ascorbic acid (10 mM), methylene blue (10 μM), catalase (100 μg/ml) and 0.01% Tween-20 in sodium phosphate buffer (50 mM; pH 6.5) at 37° C. for 60 min. The reaction was terminated with 200 mM piperidine (PIP) and further incubated at about 65° C. for about 20 minutes to convert N-formylkynurenine (NFK) to NFK-PIP. The reaction mixture was then incubated at room temperature for about 1 hour. The fluorescence intensity was read in a fluorescence microplate reader at an excitation wavelength of 400 nm and emission wavelength of 500 nm. Percent inhibition at each concentration of test compounds was determined by estimating the decrease in NFK-PIP. Data were analyzed using nonlinear regression to generate IC50 values using Graph Pad Prism® 6.

[2] = target: T2, human tryptophan 2,3-dioxygenase (hTDO) (Homo sapiens, UniProt P48775); assay: In-vitro human tryptophan 2,3-dioxygenase (TDO) enzyme assay; assay type: biochemical; details: for inhibition at 1 µM: hTDO enzyme at 1.0 μM concentration; for inhibition at 10 µM: hTDO enzyme at 10.0 μM concentration
T2 construct: His tag (N); purchased BPS Bioscience, San Diego, Calif., USA; host or cells: E. coli
Method: as §1, with “In” for “In-vitro human indoleamine 2,3-dioxygenase 1 (IDO1) enzyme assay: In”, “tryptophan” for “indoleamine”, “(hTDO)” for “1 (hIDO1)”, “hTDO” for “hIDO1”
The assay monitoring method for the conversion of L-tryptophan to N-formylkynurenine by hTDO was carried out as follows. hTDO (125 ng) was incubated in the presence of 200 μM L-tryptophan, 100 mM sodium phosphate buffer (pH 7.0), 0.01% Tween-20 and 100 μM ascorbic acid at about 37° C. for about 60 minutes. The reaction was terminated with 200 mM piperidine (PIP) and further incubated at about 65° C. for about 20 minutes to convert N-formylkynurenine (NFK) to NFK-PIP. The reaction mixture was then incubated at room temperature for about 75 minutes. The fluorescence intensity was read in a fluorescence microplate reader at an excitation wavelength of 400 nm and emission wavelength of 500 nm. Percent inhibition at each concentration of test compounds was determined by estimating the decrease in NFK-PIP. Data were analyzed using nonlinear regression to generate IC50 values using Graph Pad Prism® 6.

T2 sequence (P48775 whole entry): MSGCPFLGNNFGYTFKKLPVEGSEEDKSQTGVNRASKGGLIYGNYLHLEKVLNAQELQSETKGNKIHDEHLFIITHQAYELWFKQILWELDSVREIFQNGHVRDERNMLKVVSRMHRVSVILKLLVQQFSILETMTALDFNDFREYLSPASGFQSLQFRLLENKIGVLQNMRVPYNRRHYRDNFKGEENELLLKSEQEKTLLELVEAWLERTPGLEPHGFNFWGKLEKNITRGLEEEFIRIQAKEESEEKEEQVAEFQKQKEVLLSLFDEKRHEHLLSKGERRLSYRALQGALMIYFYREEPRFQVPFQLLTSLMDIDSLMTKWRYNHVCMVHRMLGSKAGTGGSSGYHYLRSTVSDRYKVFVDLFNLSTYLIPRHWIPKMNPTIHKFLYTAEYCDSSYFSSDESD
T1 sequence (P14902 whole entry): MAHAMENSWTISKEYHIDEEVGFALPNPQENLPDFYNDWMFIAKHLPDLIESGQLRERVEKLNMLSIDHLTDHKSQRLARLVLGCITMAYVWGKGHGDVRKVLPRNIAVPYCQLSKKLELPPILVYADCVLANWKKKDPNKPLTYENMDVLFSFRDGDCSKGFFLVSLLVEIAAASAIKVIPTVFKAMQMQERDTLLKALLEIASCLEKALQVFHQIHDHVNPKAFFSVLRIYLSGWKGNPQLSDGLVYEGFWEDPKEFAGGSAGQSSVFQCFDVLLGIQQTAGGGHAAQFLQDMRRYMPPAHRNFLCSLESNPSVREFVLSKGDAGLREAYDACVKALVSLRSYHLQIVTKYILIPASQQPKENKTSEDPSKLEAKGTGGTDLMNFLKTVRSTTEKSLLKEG

SMILES | IC50 [1] | inhibition at 1 µM [1] | inhibition at 10 µM [1] | inhibition at 1 µM [2] | inhibition at 10 µM [2]
CC1=C(c2ccccc2)C(CC(=O)c2ccccc2)n2cncc21 (single isomer, unassigned) [Example 30] | > 500 nM | ≥ 50% | ≥ 50% | ≥ 50% | ≥ 50%
CC1=C(c2ccccc2F)C(CC(=O)C2CCC(O)CC2)n2cncc21 (single isomer, unassigned) [Example 97] | – | ≤ 50% | – | ≥ 50% | –
CC1=C(c2ccccc2F)C(CC(=O)C2CCC(O)CC2)n2cncc21 (single isomer, unassigned) [Example 98] | – | – | ≥ 50% | – | –
CC1=C(c2ccccc2)C(CC(O)C2CCC(O)CC2)n2cncc21 (single isomer, unassigned) [Example 121] | – | ≤ 50% | ≥ 50% | ≤ 50% | –
CC1=C(c2ccccc2)C(CC(O)C2CCC(O)CC2)n2cncc21 (single isomer, unassigned) [Example 122] | < 500 nM | – | – | – | –
CC1=C(c2ccccc2)C(CC(O)C2CCN(C(=O)c3ccccn3)CC2)n2cncc21 (single isomer, unassigned) [Example 160] | – | ≤ 50% | ≤ 50% | ≤ 50% | –
CC1=C(c2ccccc2)C(CC(O)C2CCN(C(=O)c3ccccn3)CC2)n2cncc21 (single isomer, unassigned) [Example 161] | > 500 nM | – | – | – | –
CC1=C(c2ccccc2)C(CC(=O)c2ccc(-c3ccccc3)cc2)n2cncc21 (single isomer, unassigned; isomer-i) [Example 42, 1-([1,1′-biphenyl]-4-yl)-2-(7-methyl-6-phenyl-5H-pyrrolo[1,2-c]imidazol-5-yl)ethan-1-one, Isomer-I] | < 500 nM | ≥ 50% | ≥ 50% | ≥ 50% | –
COC(=O)c1ccc(C(=O)CC2C(c3ccccc3)=C(C)c3cncn32)cc1 (single isomer, unassigned; isomer-i) [Example 71, 4-[2-(7-Methyl-6-phenyl-5H-pyrrolo[1,2-c]imidazol-5-yl)-acetyl]-benzoic acid methyl ester, Isomer-I] | < 500 nM | ≥ 50% | ≥ 50% | ≥ 50% | ≥ 50%
CC1=C(c2ccccc2)C(C[C@H](O)C2CCC(C(=O)OC(C)(C)C)CC2)n2cncc21 (stereo in doubt) [Example 185] | < 500 nM | ≥ 50% | ≥ 50% | ≥ 50% | –
CCOC(=O)C1CCC([C@@H](O)CC2C(c3ccccc3)=C(C)c3cncn32)CC1 (stereo in doubt) [Example 189] | < 500 nM | ≥ 50% | ≥ 50% | ≥ 50% | –
CCCCCCCCC(O)CC1C(c2ccccc2)=C(C)c2cncn21 (centres unmarked) [Compound 171, 1-(7-Methyl-6-phenyl-5H-pyrrolo[1,2-c]imidazol-5-yl)-decan-2-ol] | – | ≥ 50% | ≥ 50% | – | ≥ 50%
CC1=C(c2ccccc2)C(CC(=O)N2CCC(O)CC2)n2cncc21 (centres unmarked) [Compound 175, 1-(4-Hydroxypiperidin-1-yl)-2-(7-methyl-6-phenyl-5H-pyrrolo[1,2-c]imidazol-5-yl)ethan-1-one] | – | ≤ 50% | ≤ 50% | ≤ 50% | –
O=C(CC1C2=C(CCCC2)c2cncn21)c1ccccc1 (centres unmarked) [Example 1, 1-Phenyl-2-(6,7,8,9-tetrahydro-5H-imidazo[5,1-a]isoindol-5-yl)-ethanone] | – | – | ≤ 50% | – | ≥ 50%
OC(CC1C2=C(CCCC2)c2cncn21)c1ccccc1 (centres unmarked) [Example 2, 1-Phenyl-2-(6,7,8,9-tetrahydro-5H-imidazo[5,1-a]isoindol-5-yl)-ethanol] | – | – | ≤ 50% | – | ≥ 50%
O=C(CC1C2=C(CCCC2)c2cncn21)c1cccc(Cl)c1 (centres unmarked) [Example 3] | – | – | ≤ 50% | – | ≥ 50%
OC(CC1C2=C(CCCC2)c2cncn21)c1cccc(Cl)c1 (centres unmarked) [Example 4] | – | – | ≤ 50% | – | ≥ 50%
Cc1ccc(S(=O)(=O)N2CCC3=C(C2)C(CC(=O)c2ccccc2)n2cncc23)cc1 (centres unmarked) [Example 5] | – | – | ≤ 50% | – | –

SMILES | IC50 [1] | inhibition at 1 µM [1] | inhibition at 10 µM [1] | inhibition at 1 µM [2] | inhibition at 10 µM [2]
Cc1ccc(S(=O)(=O)N2CCC3=C(C2)C(CC(O)c2ccccc2)n2cncc23)cc1 (centres unmarked) [Example 6] | – | – | ≤ 50% | – | –
O=C(CC1C2=C(CCCC2)c2cncn21)c1cccc(OCc2ccccc2)c1 (centres unmarked) [Example 7] | – | – | ≤ 50% | – | ≥ 50%
OC(CC1C2=C(CCCC2)c2cncn21)c1cccc(OCc2ccccc2)c1 (centres unmarked) [Example 8] | – | – | ≤ 50% | – | ≥ 50%
O=C(CC1C2=C(CCCC2)c2cncn21)c1cc(F)ccc1F (centres unmarked) [Example 9] | – | – | ≤ 50% | – | ≥ 50%
OC(CC1C2=C(CCCC2)c2cncn21)c1cc(F)ccc1F (centres unmarked) [Example 10] | – | – | ≤ 50% | – | ≥ 50%
CC1=C(c2ccccc2)C(CC(=O)c2ccccc2)n2cncc21 (centres unmarked) [Example 11, 2-(7-Methyl-6-phenyl-5H-pyrrolo[1,2-c]imidazol-5-yl)-1-phenyl-ethanone] | > 500 nM | – | ≥ 50% | – | ≥ 50%
CC1=C(c2ccccc2)C(CC(O)c2ccccc2)n2cncc21 (centres unmarked) [Example 12, 2-(7-Methyl-6-phenyl-5H-pyrrolo[1,2-c]imidazol-5-yl)-1-phenyl-ethanol] | > 500 nM | – | ≥ 50% | – | ≥ 50%
O=C(CC1C=C(c2ccccc2)c2cncn21)c1ccccc1 (centres unmarked) [Example 13] | – | – | ≤ 50% | – | –
OC(CC1C=C(c2ccccc2)c2cncn21)c1ccccc1 (centres unmarked) [Example 14] | – | – | ≤ 50% | – | –
CC1=C(c2cccc(F)c2)C(CC(=O)c2ccccc2)n2cncc21 (centres unmarked) [Example 15, 2-[6-(3-Fluoro-phenyl)-7-methyl-5H-pyrrolo[1,2-c]imidazol-5-yl]-1-phenyl-ethanone] | – | ≤ 50% | ≥ 50% | – | ≥ 50%
CC1=C(c2cccc(F)c2)C(CC(O)c2ccccc2)n2cncc21 (centres unmarked) [Example 16, 2-[6-(3-Fluoro-phenyl)-7-methyl-5H-pyrrolo[1,2-c]imidazol-5-yl]-1-phenyl-ethanol] | – | ≤ 50% | ≥ 50% | – | ≥ 50%
CC1=C(c2ccccc2)C(CC(=O)c2cccc(Cl)c2)n2cncc21 (centres unmarked) [Example 17, 1-(3-Chloro-phenyl)-2-(7-methyl-6-phenyl-5H-pyrrolo[1,2-c]imidazol-5-yl)-ethanone] | < 500 nM | ≥ 50% | ≥ 50% | ≥ 50% | ≥ 50%
COC(=O)c1ccc(C(=O)CC2C(c3ccccc3)=C(C)c3cncn32)cc1 (centres unmarked) [Example 18, 4-[2-(7-Methyl-6-phenyl-5H-pyrrolo[1,2-c]imidazol-5-yl)-acetyl]-benzoic acid methyl ester] | < 500 nM | ≥ 50% | ≥ 50% | ≥ 50% | ≥ 50%
CC1=C(c2ccccc2)C(CC(O)c2cccc(Cl)c2)n2cncc21 (centres unmarked) [Example 19, 1-(3-Chloro-phenyl)-2-(7-methyl-6-phenyl-5H-pyrrolo[1,2-c]imidazol-5-yl)-ethanol] | < 500 nM | ≥ 50% | ≥ 50% | ≥ 50% | ≥ 50%
CC1=C(c2ccccc2)c2cncn2C1CC(=O)c1ccccc1 (centres unmarked) [Example 21] | – | ≤ 50% | ≤ 50% | – | –
CC1=C(c2ccccc2)C(CC(O)C2CCC(O)CC2)n2cncc21 (centres unmarked) [Example 111] | > 500 nM | – | ≥ 50% | – | –
CCCNC(=O)CC1C(c2ccccc2)=C(C)c2cncn21 (centres unmarked) [Example 172, 2-(7-Methyl-6-phenyl-5H-pyrrolo[1,2-c]imidazol-5-yl)-N-propylacetamide] | – | ≤ 50% | ≤ 50% | – | –
